Experiments:
[1] = test system: methicillin sensitive strain of Staphylococcus aureus (clinical isolate); test: ATP assay (ligase/quantitative PCR) of Staphylococcus aureus susceptibility to antibiotic, sensitive strain; type: cell-based; conditions: grown 3 hours at 37° C. with 60 μg/ml oxacillin; FIG. 7
Protocol: (§1) • 1. A bacterial culture of a clinical isolate of a MRSA and antibiotic sensitive strain of Staphylococcus aureus strain were prepared in Nutrient media (Lab M, UK) and grown to stationary phase at 37° C. overnight. • 2. The following day, a hundred-fold dilution of the bacterial cultures were prepared in the same media with 1 μl alkaline phosphatase (10 units, New England Biolabs) with and without 60 μg/ml oxacillin and grown for 3 hours at 37° C. • 3. For the quantitation of ATP, 10 μl of each 0 (10 μl culture removed and treated at time 0 min) and 3 hour culture were added to 2.5 μl of 1M NaOH, 1% (v/v) Triton X-100 and incubated for 5 min before neutralisation with 25 μl of 0.1M HCL. 4. 100 μl of ligase buffer was then added followed by 5 μl ligase/DNA substrate paramagnetic beads (prepared as described in Example 2 above). • 5. After incubation at 8° C. for 60 min, the beads were collected using a magnet and resuspended in 20 μl ligase buffer. • 6. After heating at 95° C. for 5 min, 2 μl of the eluted ligated product was quantitated by PCR. • 7. The quantitative PCR was performed as described previously. Results
There is growth and an increase of ATP observed after 3 hr compared to the zero time point. This growth and increase in ATP is not observed when the organism is grown in the presence of oxacillin. […]

[2] = test system: methicillin resistant strain of Staphylococcus aureus (MRSA clinical isolate); test: ATP assay (ligase/quantitative PCR) of Staphylococcus aureus susceptibility to antibiotic, MRSA strain; type: cell-based; conditions: grown 3 hours at 37° C. with 60 μg/ml oxacillin; FIG. 8
Protocol: as §1
There is growth and an increase of ATP observed after 3 hr in the absence of antibiotic compared to the zero time point. […] The organism is not sensitive to this antibiotic and continues to grow and produce ATP in the presence of this antibiotic.

Cc1onc(-c2ccccc2)c1C(=O)N[C@@H]1C(=O)N2[C@@H]1SC(C)(C)[C@@H]2C(=O)O [oxacillin]
growth and increase in ATP after 3 hr compared to the zero time point [1]: not observed | growth and increase in ATP after 3 hr compared to the zero time point [2]: reduced but not abrogated
